Measurements from patent US10967076B2, “Use of non-labeled sugars and detection by MRI for assessing tissue perfusion and metabolism” (The Johns Hopkins University, priority 2010, dated 2021).

Columns and labels:
[1] = system: MDA-MB-231 and MCF-7 xenografts; assay: steady-state glucoCEST MRI before and after D-glucose infusion in a xenograft mouse at 9.4 T; assay type: in vivo, mice; settings: offset 1.2 ppm, blood glucose about 20 mM, preliminary data, FIG. 4F
Description: Tumors are generally characterized by rapid glucose metabolism, increased tissue blood volume, and increased permeability to extravascular extracellular space (EES). We applied glucose infusion in vivo on xenografts in mice for two human breast cancer lines: less aggressive (MCF-7) and highly aggressive and metastatic (MDA-MB-231). Our MRI protocol used normal D-glucose (non-radioactive, non-hyperpolarized and not labeled with magnetic isotopes) and monitored this using glucose-based chemical exchange saturation transfer (glucoCEST) MRI. Images were compared with perfusion as assessed by dynamic contrast-enhanced (DCE) MRI and glucose uptake as assessed by FDG-PET. In-vivo animal experiments employed female SCID mice four to six weeks old. Tumor cells were implanted orthotopically in the mammary fat pad in an aseptic surgical procedure according to Institutional Animal Care and Use Committee (IACUC) guidelines. […] Following tumor cell implants, animals were monitored until recovered from anesthesia and then checked after 6 and 12 h, then daily. […]

[2] = system: MDA-MB-231 and MCF7 xenografts; assay: dynamic glucoCEST MRI during D-glucose infusion in a xenograft mouse at 11.7 T; assay type: in vivo; settings: FIGS. 6A-6C
Description: FIGS. 6A-6C show results for a D-glucose infusion experiment with dynamic monitoring of the MR exchange transfer signals for a mouse with two tumor xenografts (MDA-MB-231 and MCF7) at 11.7 T for which a D-glucose infusion protocol similar to the example in FIG. 4 was used.

[3] = system: MDA-MB-231 and MCF7 xenografts; assay: DCE-MRI with GdDTPA (post-Gd-DTPA difference images) of the xenograft mouse; assay type: in vivo
Description: We applied glucose infusion in vivo on xenografts in mice for two human breast cancer lines: less aggressive (MCF-7) and highly aggressive and metastatic (MDA-MB-231). Our MRI protocol used normal D-glucose (non-radioactive, non-hyperpolarized and not labeled with magnetic isotopes) and monitored this using glucose-based chemical exchange saturation transfer (glucoCEST) MRI. Images were compared with perfusion as assessed by dynamic contrast-enhanced (DCE) MRI and glucose uptake as assessed by FDG-PET. In-vivo animal experiments employed female SCID mice four to six weeks old. Tumor cells were implanted orthotopically in the mammary fat pad in an aseptic surgical procedure according to Institutional Animal Care and Use Committee (IACUC) guidelines. For cell implantation in the mammary fat pad, mice were anesthetized with ketamine and acepromazine (6.25 mg/kg and 62.5 mg/kg) injected in a volume of 0.05 ml using a sterile insulin syringe (28.5 G needle), and a cell suspension containing 1×10^6 MDA-MB-231 cells in 0.05 ml of Hanks balanced salt solution was injected into the upper right thoracic mammary fat pad using a sterile insulin syringe (28.5 G needle). […] Following tumor cell implants, animals were monitored until recovered from anesthesia and then checked after 6 and 12 h, then daily. […]

[4] = system: MDA-MB-231 and MCF-7 xenografts; assay: 18F-FDG-PET of the xenograft mouse; assay type: in vivo; settings: 1 hr post-injection, FIG. 5B
Description: We applied glucose infusion in vivo on xenografts in mice for two human breast cancer lines: less aggressive (MCF-7) and highly aggressive and metastatic (MDA-MB-231). Our MRI protocol used normal D-glucose (non-radioactive, non-hyperpolarized and not labeled with magnetic isotopes) and monitored this using glucose-based chemical exchange saturation transfer (glucoCEST) MRI. Images were compared with perfusion as assessed by dynamic contrast-enhanced (DCE) MRI and glucose uptake as assessed by FDG-PET. In-vivo animal experiments employed female SCID mice four to six weeks old. Tumor cells were implanted orthotopically in the mammary fat pad in an aseptic surgical procedure according to Institutional Animal Care and Use Committee (IACUC) guidelines. For cell implantation in the mammary fat pad, mice were anesthetized with ketamine and acepromazine (6.25 mg/kg and 62.5 mg/kg) injected in a volume of 0.05 ml using a sterile insulin syringe (28.5 G needle), and a cell suspension containing 1×10^6 MDA-MB-231 cells in 0.05 ml of Hanks balanced salt solution was injected into the upper right thoracic mammary fat pad using a sterile insulin syringe (28.5 G needle). […] Following tumor cell implants, animals were monitored until recovered from anesthesia and then checked after 6 and 12 h, then daily.

O=C[C@H](O)[C@@H](O)[C@H](O)[C@H](O)CO [D-glucose]
glucose uptake (MTR asymmetry histograms before and after infusion, ROIs) [1]: a trend towards higher glucose uptake in the malignant MDA-MB-231 tumor (ROI 1) as well as in the necrotic area in the MCF7 tumor (ROI 2)
uptake (MTRasym signal changes as a function of time during infusion, rim and tumor center) [2]: uptake is higher in the more malignant MDA-MB-231 tumor

O=C([O-])CN(CCN(CC(=O)[O-])CC(=O)O)CCN(CC(=O)[O-])CC(=O)O.[Gd+3] [Gd-DTPA, Gadolinium-DiethyleneTriaminePentaacetic Acid]
visualization of the tumor mass ([3]; 0.2 mmole/kg GdDTPA, FIG. 5C): good visualization of the tumor mass relative to normal tissue
highlighting of the necrotic area in the MCF7 tumor ([3]; Gd perfusion scan): did not highlight the necrotic area in the MCF7 tumor

Fluorodeoxyglucose [^18F-FDG]
glucose uptake on PET [4]: the MDA-MB-231 tumor exhibits a higher glucose uptake than the MCF-7 tumor
